Assay results from US11213548B2, “Modulatable switch for selection of donor modified cells” (CSL Behring Gene Therapy, Inc., priority 2017, dated 2022).

Legend:
Assay type in all cases: cell-based
[1] = system: K562 cells; test: Positive selection with 6TG of HPRT knockdown / knockout K562 cells (ex vivo)
Method: K562 cells were transduced with a vector including a nucleic acid sequence designed to knockdown HPRT and a nucleic acid sequence encoding the green fluorescent protein (GFP) (MOI=1/2/5); or were transfected with a nanocapsule including CRISPR/Cas9 and a sgRNA to HPRT (100 ng/5×10^4 cells) at day zero (0). 6-TG was added into the medium from day 3 through day 14. The medium was refreshed every 3 to 4 days. GFP was analyzed on flow machine and InDel % as analyzed with T7E1 assay. FIG. 9A illustrates that the GFP+ population of transduced K562 cells increased from day 3 to day 14 under treatment of 6TG; while the GFP+ population was almost steady without 6-TG treatment. […] It should be noted that 6TG selection process occurred much faster on HPRT knockout cells as compared with the HPRT knockdown cells (MOI=1) at the same concentration of 300 nM of 6TG from day 3 to day 14. The difference between knockdown and knockout could be explained by some level of residual HPRT by the RNAi knockdown approach as compared with the full elimination of HPRT by the knockout approach. Therefore, HPRT-knockout cells were believed to have a much higher tolerance against 6TG and are believed to grow much faster at higher dosages of 6TG (900 nM) compared with HPRT-knockdown cells.

[2] = system: K562 cells; test: Negative selection with MTX for K562 cells transduced with different lentiviral vector designs
Method: K562 cells were transduced with either TL20cw-GFP virus soup at dilution factor of 16, TL2Ocw-Ubc/GFP-7SK/sh734 (one sequentially encoding GFP and a shRNA designed to knockdown HPRT) virus soup at dilution factor of 16 and TL2Ocw-7SK/sh734-UBC/GFP (one sequentially encoding a shRNA designed to knockdown HPRT and GFP) virus soup at dilution factor of 16, respectively (see FIG. 13). All cells were cultured with medium containing 0.3 uM of MTX 3 days later. Also shown in FIG. 13 are K562 cells which were transduced by TL20cw-7SK/sh734-UBC/GFP (one encoding a nucleic acid encoding a shRNA designed to knockdown HPRT) virus soup at dilution factor of 1024 one month earlier and where GFP-sh734-transduced cells were positively selected with 300 nM of 6TG 6-TG was selection during that time to reach more than 90% of GFP+ population. […] The relative sh734 expression per VCN for sh734-GFP-transduced cells and GFP-sh73-transduced cells were measured.

[3] = system: CEM cells; test: Positive selection with 6TG of HPRT knockdown / knockout CEM cells (ex vivo)
Method: CEM cells were transduced with a vector including a nucleic acid sequence designed to knockdown HPRT and a nucleic acid sequence encoding the green fluorescent protein or transfected with a nanocapsule including CRISPR/Cas9 and a sgRNA to HPRT at day 0. 6-TG was added into the medium from day 3 to day 17. The medium was refreshed every 3 to 4 days. GFP as analyzed on flow machine and InDel % is analyzed by T7E1 assay. FIG. 10A illustrates that the GFP+ population of transduced […] cells increased from day 3 to day 17 under treatment of 6TG while GFP+ population was almost steady without 6-TG. […] It should be noted that 6TG selection process occurred faster on HPRT knockout cells rather than HPRT knockdown cells (MOI=1) at the same concentration of 6TG from day 3 to day 17.

[4] = system: CEM cells; test: Negative selection with MTX or MPA of transduced or transfected CEM cells; details: day 0 to day 14; for GFP population of transduced cells under treatment: CEM experiment (K562 in the source), steady for untreated group
[5] = system: K562 cells; test: Negative selection with MTX of transduced or transfected K562 cells; details: 0.3 uM MTX, day 0 to day 14
Method: Transduced or transfected K562 cells (such as those from Example 6) were cultured with or without MTX from day 0 to day 14. The medium was refreshed every 3 to 4 days. GFP was analyzed on flow machine and InDel % was analyzed by T7E1 assay. […] FIG. 11B illustrates that the transfected K562 cells were eliminated under treatment with 0.3 uM of MTX at a faster pace as compared with the HPRT-KD population.

Nc1nc2nc[nH]c2c(=S)[nH]1 [6TG, 6-thioguanine]
Speed of selection of HPRT knockout K562 cells, higher dosage versus 300/600 nM of 6TG ([1]; 900 nM 6TG compared with 300/600 nM, day 3 to 14): faster selection
HPRT knockout population of K562 cells under treatment of 6TG ([1]; CRISPR/Cas9 + sgRNA to HPRT nanocapsule, day 3 to 14, InDel % by T7E1 assay): increased
GFP+ population of transduced K562 cells under treatment of 6TG ([1]; HPRT knockdown vector with GFP, MOI=1/2/5, 6-TG in medium day 3 to day 14, flow, almost steady without 6-TG): increased
Speed of 6TG selection on HPRT knockout cells compared with HPRT knockdown cells (MOI=1) ([1]; K562, 300 nM 6TG, day 3 to day 14): much faster
GFP+ population reached by positive selection with 6TG ([2]; 300 nM 6TG, K562 transduced at dilution factor of 1024 one month earlier): more than 90%
Speed of selection of HPRT knockout CEM cells, higher dosage versus 300/600 nM of 6TG ([3]; 900 nM 6TG compared with 300/600 nM, day 3 to 17): faster selection
GFP+ population of transduced cells under treatment of 6TG ([3]; CEM experiment (K562 in the source), HPRT knockdown vector with GFP, 6-TG day 3 to day 17, almost steady without 6-TG): increased
Speed of 6TG selection on HPRT knockout cells compared with HPRT knockdown cells (MOI=1) ([3]; CEM, same concentration of 6TG, day 3 to day 17): faster
HPRT knockout population of CEM cells under treatment of 6TG ([3]; CRISPR/Cas9 + sgRNA to HPRT nanocapsule, day 3 to 17, InDel % by T7E1 assay): increased

COc1c(C)c2c(c(O)c1C/C=C(\C)CCC(=O)O)C(=O)OC2 [MPA, mycophenolic acid]
GFP population of transduced cells under treatment ([4]; 1 uM MPA): decreased
HPRT knockout population of CEM cells under treatment ([4]; 1 uM MPA): eliminated at a faster pace
GFP population of transduced cells under treatment ([4]; 10 uM MPA): decreased
HPRT knockout population of CEM cells under treatment ([4]; 10 uM MPA): eliminated at a faster pace

CN(Cc1cnc2nc(N)nc(N)c2n1)c1ccc(C(=O)N[C@@H](CCC(=O)O)C(=O)O)cc1 [MTX, methotrexate]
GFP population of transduced cells under treatment ([4]; 0.3 uM MTX): decreased
HPRT knockout population of CEM cells under treatment ([4]; 0.3 uM MTX): eliminated at a faster pace
GFP population of transduced K562 cells under treatment of MTX ([5]; HPRT knockdown, steady without MTX): decreased
Transfected (HPRT knockout) K562 cells under treatment with MTX ([5]; faster pace than HPRT-KD population): eliminated
Deselection of transduced K562 cells by methotrexate ([2]; 0.3 uM MTX, sh734-high-expression versus sh734-low-expression lentiviral vector): could only deselect cells transduced with sh734-high-expression lentiviral vector
